The record followed here is BindingDB's records for doi:10.1021/jm020940p (University of Innsbruck, 2002).

The term Ki denotes a dissociation constant, usually derived from enzyme kinetics or from competition with a known ligand. The low end stands for higher affinity, the high end for lower affinity.

Molecules are shown by their SMILES.

Experiment [1] is described as follows: The ability of compound to inhibit [35S][…] binding in guinea pig caudate stimulated by SNC80 (Opioid receptor delta 1) antagonist.
The nature of experiment [2]: The ability of compound to inhibit [35S][…] binding in guinea pig caudate stimulated by SNC80.

`CCO[C@@]12Cc3c(oc4ccccc34)[C@@H]3Oc4c(O)ccc5c4[C@@]31CCN(CC1CC1)[C@@H]2C5` had a Ki in experiment [1] of 0.88 nM. For the compound `C=CCN1CC[C@]23c4c5ccc(O)c4O[C@H]2c2[nH]c4ccccc4c2C[C@@]3(OCC)[C@H]1C5`, affinity in experiment [2] was put at a Ki of 1 nM. As to `CCO[C@@]12Cc3c([nH]c4ccccc34)[C@]3(C)Oc4c(O)ccc5c4C31CCN(CC1CC1)C2C5` (stereo partly drawn) [22-cyclopropylmethyl-2-ethoxy-13-methyl-(2S,13R)-14-oxa-11,22-diazaheptacyclo[13.9.1.01,13.02,21.04,12.05,10.019,25]pentacosa-4(12),5(10),6,8,15,17,19(25)-heptaen-16-ol], the Ki in experiment [1] was found to be 0.96 nM.
